Data set [1] relates to B-16 melanoma cells. Briefly: Test for evaluating melanogenesis-inhibitory function (cell-whitening degree) in cell culture systems using B-16 melanoma cells. The class given is cell-based. The arrangement: key to Whitening degree: ++: The whitening degree is higher than that observed when adding 450 μg/mL of vitamin C-magnesium phosphate.; +: The whitening degree is almost identical to that observed when adding 450 μ g/mL of vitamin C-magnesium phosphate.; ±: The whitening degree is not higher than that observed when adding 450 μg/mL of vitamin C-magnesium phosphate, but higher than that of the control.; −: The whitening degree is almost identical to that observed for the control. The text has this: (§1) The B-16 melanoma cell is one having an ability of producing melanin and therefore, the cells naturally grown by cell culture blacken. If a substance capable of inhibiting melanogenesis is present in the cell growth system during the cell growth, the blackening of the cells is inhibited and they relatively whiten. Accordingly, the whitening effect of each candidate substance can be evaluated on the basis of the degree of whiteness observed when adding a test sample relative to the degree of blackness observed for a control. […] To evaluate this cytotoxicity, the cell survival rate observed when adding a test sample to the system is compared with that observed for the control. Thus, the substantial whitening effect can be evaluated on the basis of the results of these cell-whitening test and cytotoxicity test.
An example of such a method for evaluating the melanogenesis-inhibitory function in a cell culture system using B-16 melanoma cells comprises, for instance, the steps of dispensing 2 ml/well of a culture medium to each well of a 6-well plate, inoculating a desired amount of melanoma cells to the medium, cultivating the cells by allowing the medium to stand at 37° C. and a carbon dioxide concentration of 5%. On the following day, a solution of a test sample is added and mixed with the culture medium to a predetermined concentration and the cell cultivation is continued. After 5 days from the initiation of the cultivation, the culture medium is replaced with fresh one and the solution of the test sample is again added thereto. On the next day, the medium is removed to thus recover the cells, followed by washing them with PBS (phosphate-buffered saline) and the determination of the degree of whiteness to thus evaluate the whitening effect of the test sample. In this connection, the melanogenesis-inhibitory function is evaluated by comparing the results thus obtained with the degree of whiteness observed when the same procedures are repeated using the vitamin C-magnesium phosphate as a known whitening agent instead of the test sample solution (positive control) and that observed when the procedures are repeated without addition of any test sample (control).
A culture medium was dispensed to wells of a 6-well plate (2 mL/well each), followed by inoculation of a desired amount of B-16 melanoma cells on each well, allowing the wells to stand at 37° C. and 5% CO2 to thus cultivate the cells. On the day subsequent thereto, a sample solution prepared was added to the wells with stirring and the cultivation was continued. The culture medium was replaced with fresh one on the 5th day from the initiation of the cultivation and the sample solution was again added to the wells. On the next day, the culture medium was removed to recover the cells, followed by washing them with PBS (phosphate buffered physiological saline) and then evaluation of the cell-whitening degree In this respect, the melanogenesis-inhibitory function was evaluated by comparing the cell-whitening degree thus obtained with that observed when the same procedures used above were repeated except that vitamin C-magnesium phosphate as a known whitening agent (positive control) was substituted for the sample solution used above and that observed when the same procedures used above were repeated except that any sample was not added (control), according to the following evaluation criteria.
The evaluation criteria for the cell-whitening degree are as follows: […]

The test system of data set [2] is B-16 melanoma cells. Briefly: Cell-survival rate (cytotoxicity) in B-16 melanoma cell culture. The class given is cell-based. Particulars: B-16 melanoma cells.
From the text: as §1
The cell-survival rate at each added sample concentration can be determined according to the following formula
Cell-Survival Rate (%)=(A/B)×100
Wherein A represents the viable cell count observed for the system to which a sample is added and B represents the number of cells observed for the control system.

The mark [3] stands for this setting: concentration 2 ppm, B-16 melanoma cells.
Setting [4] is: concentration 4 ppm, B-16 melanoma cells.
Where [5] appears, read: concentration 6 ppm, B-16 melanoma cells.
Where [6] appears, read: concentration 8 ppm, B-16 melanoma cells.
Setting [7] is: concentration 10 ppm, B-16 melanoma cells.
[8] abbreviates: concentration 15 ppm, B-16 melanoma cells.
The mark [9] stands for this setting: concentration 25 ppm, B-16 melanoma cells.
[10] abbreviates: concentration 50 ppm, B-16 melanoma cells.

Here are results for 13 compounds from patent US20030133958A1, “External agent for the skin and whitening agent” (priority 2000, published 2003).

In the case of `CC[Si](CC)(CC)OC(=O)[C@]12CCC(C)(C)C[C@H]1C1=CC[C@@H]3[C@@]4(C)C[C@@H](O[Si](CC)(CC)CC)[C@H](O[Si](CC)(CC)CC)C(C)(C)[C@@H]4CC[C@@]3(C)[C@]1(C)CC2` [Compound of Synthesis 3, Triethylsilyl Ester of 2,3-O-Di-Triethylsilyl-Maslinic Acid], the Whitening degree entry is reported as “−” in the data set with B-16 melanoma cells [1] (setting [3]); “±” with B-16 melanoma cells [1] (setting [4]); “±” with B-16 melanoma cells [1] (setting [5]); “+” in the data set on B-16 melanoma cells [1] (setting [6]); “+” in the data set on B-16 melanoma cells [1] (setting [7]); “+” in the data set with B-16 melanoma cells [1] (setting [8]). Further, the Whitening degree entry in the data set with B-16 melanoma cells [1] (setting [9]) and with B-16 melanoma cells [1] (setting [10]) was “+” throughout. Besides, the “Cell-Survival Rate” value in the data set with B-16 melanoma cells [2] (concentration 2 ppm), with B-16 melanoma cells [2] (concentration 4 ppm), with B-16 melanoma cells [2] (concentration 6 ppm), in the data set on B-16 melanoma cells [2] (concentration 8 ppm), in the data set with B-16 melanoma cells [2] (concentration 10 ppm) and in the data set on B-16 melanoma cells [2] (concentration 15 ppm) was 100% throughout. Further, the “Cell-Survival Rate” value in the data set on B-16 melanoma cells [2] (concentration 25 ppm) came out at 100%; in the data set with B-16 melanoma cells [2] (concentration 50 ppm), 94%.

Consider `CC(=O)O[C@@H]1C[C@]2(C)[C@H]3CC=C4[C@@H]5CC(C)(C)CC[C@]5(C(=O)O)CC[C@@]4(C)[C@]3(C)CC[C@H]2C(C)(C)[C@H]1OC(C)=O` [Compound of Synthesis 2, 2,3-O-Di-Acetyl-Maslinic Acid], for which the Whitening degree entry in the data set with B-16 melanoma cells [1] (setting [3]) is given as “±”; in the data set on B-16 melanoma cells [1] (setting [4]), “±”; in the data set on B-16 melanoma cells [1] (setting [5]) it was “+”; in the data set on B-16 melanoma cells [1] (setting [6]), “++”; with B-16 melanoma cells [1] (setting [7]), “++”; with B-16 melanoma cells [1] (setting [8]) it was “++”.

As for `CC1(C)CC[C@]2(C(=O)O)CC[C@]3(C)C(=CC[C@@H]4[C@@]5(C)C[C@@H](O)[C@H](O)C(C)(C)[C@@H]5CC[C@]43C)[C@@H]2C1` [Purified maslinic acid 1, maslinic acid], the Whitening degree entry with B-16 melanoma cells [1] (setting [3]) was “±”; in the data set on B-16 melanoma cells [1] (setting [4]), “+”; in the data set on B-16 melanoma cells [1] (setting [5]) it was “++”; in the data set on B-16 melanoma cells [1] (setting [6]), “++”; with B-16 melanoma cells [1] (setting [7]) it was “++”. In the data set with B-16 melanoma cells [1] (from Table 1, positive control vitamin C-magnesium phosphate 450 ppm), the “whitening effect, times that observed for vitamin C-magnesium phosphate” value is on record as “about 110 times”. Also, the “added concentration at which the whitening effect is almost identical to that of the positive control” value with B-16 melanoma cells [1] (positive control vitamin C-magnesium phosphate 450 ppm, B-16 melanoma cells) was 4 ppm. Moreover, the “Cell-Survival Rate” value came out at 100% in the data set on B-16 melanoma cells [2] (concentration 2 ppm); 100% in the data set with B-16 melanoma cells [2] (concentration 4 ppm); 100% with B-16 melanoma cells [2] (concentration 6 ppm); 79% with B-16 melanoma cells [2] (concentration 8 ppm); 57% in the data set on B-16 melanoma cells [2] (concentration 10 ppm).

Take `CC1(C)CC[C@]2(C(=O)O)CC[C@]3(C)C(=CC[C@@H]4[C@@]5(C)CC[C@H](O)C(C)(C)[C@@H]5CC[C@]43C)[C@@H]2C1` [oleanolic acid, reference compound]: the “whitening effect (melanogenesis-inhibitory function), in words” value in the data set with B-16 melanoma cells [1] was “never show any whitening effect”.

In the case of `CCOC(=O)[C@]12CCC(C)(C)C[C@H]1C1=CC[C@@H]3[C@@]4(C)C[C@@H](O)[C@H](O)C(C)(C)[C@@H]4CC[C@@]3(C)[C@]1(C)CC2` [Compound of Synthesis 1, Ethyl Ester of Maslinic Acid], the Whitening degree entry was “±” with B-16 melanoma cells [1] (setting [3]); “+” in the data set with B-16 melanoma cells [1] (setting [4]); “++” with B-16 melanoma cells [1] (setting [5]); “++” in the data set with B-16 melanoma cells [1] (setting [6]); “++” in the data set on B-16 melanoma cells [1] (setting [7]).

`CC(=O)OC[C@]12CC[C@@H](C)[C@H](C)[C@H]1C1=CC[C@@H]3[C@@]4(C)CC[C@H](OC(C)=O)C(C)(C)[C@@H]4CC[C@@]3(C)[C@]1(C)CC2` [Compound of Synthesis 6, 3,28-O-Di-Acetyl-Uvaol]: the Whitening degree result in the data set on B-16 melanoma cells [1] (setting [3]) was “−”; in the data set with B-16 melanoma cells [1] (setting [4]), “−”; with B-16 melanoma cells [1] (setting [5]), “−”; in the data set on B-16 melanoma cells [1] (setting [6]), “±”; in the data set on B-16 melanoma cells [1] (setting [7]), “+”; with B-16 melanoma cells [1] (setting [8]), “+”. The Whitening degree result with B-16 melanoma cells [1] (setting [9]) and in the data set on B-16 melanoma cells [1] (setting [10]) was “+” each time.

For the compound `C[C@H]1[C@H](C)CC[C@]2(C)CC[C@]3(C)C(=CC[C@@H]4[C@@]5(C)CC[C@H](O)C(C)(C)[C@@H]5CC[C@]43C)[C@H]12` [α-amyrin, reference compound], in the data set on B-16 melanoma cells [1], the “whitening effect (melanogenesis-inhibitory function), in words” value is listed as “never show any whitening effect”.

On to `CC(=O)OCC12CCC(C)(C)CC1C1=CCC3C4(C)CCC(OC(C)=O)C(C)(C)C4CCC3(C)C1(C)CC2` (stereo not drawn) [Compound of Synthesis 5, 3,28-O-Di-Acetyl-Erythrodiol], for which the Whitening degree entry with B-16 melanoma cells [1] (setting [3]), in the data set with B-16 melanoma cells [1] (setting [4]), in the data set on B-16 melanoma cells [1] (setting [5]), in the data set with B-16 melanoma cells [1] (setting [6]), in the data set with B-16 melanoma cells [1] (setting [7]) and in the data set with B-16 melanoma cells [1] (setting [8]) was “±” each time. In addition, the Whitening degree entry with B-16 melanoma cells [1] (setting [9]) and with B-16 melanoma cells [1] (setting [10]) was “+” each time.

Take `CC1(C)CC[C@]2(C)CC[C@]3(C)C(=CC[C@@H]4[C@@]5(C)CC[C@H](O)C(C)(C)[C@@H]5CC[C@]43C)[C@@H]2C1` [β-amyrin, reference compound]: in the data set on B-16 melanoma cells [1], the “whitening effect (melanogenesis-inhibitory function), in words” value is recorded as “never show any whitening effect”.

For the compound `C=C(C)[C@@H]1CC[C@]2(C)CC[C@]3(C)[C@H](CC[C@@H]4[C@@]5(C)CC[C@H](O)C(C)(C)[C@@H]5CC[C@]43C)[C@@H]12` [lupeol, reference compound], in the data set on B-16 melanoma cells [1], the “whitening effect (melanogenesis-inhibitory function), in words” value is recorded as “never show any whitening effect”.

As for `C=C(C)[C@@H]1CC[C@]2(C(=O)OCC)CC[C@]3(C)[C@H](CC[C@@H]4[C@@]5(C)CC[C@H](O)C(C)(C)[C@@H]5CC[C@]43C)[C@@H]12` [Compound of Synthesis 7, Ethyl Ester of Betulinic Acid], the Whitening degree entry is given as “−” in the data set with B-16 melanoma cells [1] (setting [3]); “±” in the data set with B-16 melanoma cells [1] (setting [4]); “±” in the data set with B-16 melanoma cells [1] (setting [5]); “±” with B-16 melanoma cells [1] (setting [6]); “+” in the data set on B-16 melanoma cells [1] (setting [7]); “+” in the data set on B-16 melanoma cells [1] (setting [8]). Besides, the Whitening degree result in the data set on B-16 melanoma cells [1] (setting [9]) and with B-16 melanoma cells [1] (setting [10]) was “+” in each case.

Turning to “Ethyl Ester of 2,3-O-Di-Stearoyl-Maslinic Acid [Compound of Synthesis 4]”, the Whitening degree entry with B-16 melanoma cells [1] (setting [3]) is “±”; in the data set on B-16 melanoma cells [1] (setting [4]), “±”; in the data set on B-16 melanoma cells [1] (setting [5]) it was “+”; in the data set with B-16 melanoma cells [1] (setting [6]), “++”; in the data set with B-16 melanoma cells [1] (setting [7]), “++”; in the data set on B-16 melanoma cells [1] (setting [8]), “++”.

In the case of `C=C(C)[C@@H]1CC[C@]2(COC(C)=O)CC[C@]3(C)[C@H](CC[C@@H]4[C@@]5(C)CC[C@H](OC(C)=O)C(C)(C)[C@@H]5CC[C@]43C)[C@@H]12` [Compound of Synthesis 8, 3,28-O-Di-Acetyl-Betulin], the Whitening degree entry with B-16 melanoma cells [1] (setting [3]) was “−”; with B-16 melanoma cells [1] (setting [4]), “−”; in the data set with B-16 melanoma cells [1] (setting [5]), “±”; with B-16 melanoma cells [1] (setting [6]) it was “±”; in the data set with B-16 melanoma cells [1] (setting [7]) it was “±”; with B-16 melanoma cells [1] (setting [8]), “+”. Further, the Whitening degree entry with B-16 melanoma cells [1] (setting [9]) and with B-16 melanoma cells [1] (setting [10]) was “+” each time.
